{
  "source": "ChEMBL document CHEMBL5465560",
  "about": "“Selectivity Literature for EUbOPEN Chemogenomic Library” (2024)",
  "key": {"[1]": {"target": "T1, Phosphatidylinositol 5-phosphate 4-kinase type-2 beta (Homo sapiens) (UniProt P78356)", "T1 sequence (whole entry)": "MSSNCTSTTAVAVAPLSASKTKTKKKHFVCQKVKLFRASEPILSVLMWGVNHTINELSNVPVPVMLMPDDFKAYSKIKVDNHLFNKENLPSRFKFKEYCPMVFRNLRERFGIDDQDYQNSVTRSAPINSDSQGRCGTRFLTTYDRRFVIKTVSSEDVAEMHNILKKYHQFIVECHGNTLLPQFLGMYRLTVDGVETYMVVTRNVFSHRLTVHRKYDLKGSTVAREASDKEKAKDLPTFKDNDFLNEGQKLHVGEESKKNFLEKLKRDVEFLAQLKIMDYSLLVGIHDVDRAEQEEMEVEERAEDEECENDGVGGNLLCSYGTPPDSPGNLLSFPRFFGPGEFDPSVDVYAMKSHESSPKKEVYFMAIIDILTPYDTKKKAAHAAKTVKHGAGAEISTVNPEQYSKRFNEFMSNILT", "experiment": "Selectivity interaction (KinomeScan (DiscoverX)) EUB0000229b PIP4K2B", "details": "at 10 µM"}, "[2]": {"target": "T2, cAMP-dependent protein kinase catalytic subunit PRKX (Homo sapiens) (UniProt P51817)", "T2 sequence (whole entry)": "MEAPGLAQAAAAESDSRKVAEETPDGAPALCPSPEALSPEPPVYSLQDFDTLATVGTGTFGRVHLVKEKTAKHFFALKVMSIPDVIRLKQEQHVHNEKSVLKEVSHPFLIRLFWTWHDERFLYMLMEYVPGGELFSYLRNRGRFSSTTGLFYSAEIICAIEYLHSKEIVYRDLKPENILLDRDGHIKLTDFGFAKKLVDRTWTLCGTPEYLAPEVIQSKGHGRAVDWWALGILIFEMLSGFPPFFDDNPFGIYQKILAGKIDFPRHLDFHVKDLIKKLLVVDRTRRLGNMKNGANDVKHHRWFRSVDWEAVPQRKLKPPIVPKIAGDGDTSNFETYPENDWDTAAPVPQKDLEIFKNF", "experiment": "Selectivity interaction (Upstate Kinase Profiler service (Millipore)) EUB0000056c PRKX", "details": "at 1 µM"}, "[3]": {"target": "Hepatocyte growth factor-like protein (Homo sapiens) (UniProt P26927)", "experiment": "Selectivity interaction (KinomeScan (DiscoverX)) EUB0000655a MST1", "details": "at 10 µM"}, "[4]": {"target": "T3, Serine/threonine-protein kinase D2 (Homo sapiens) (UniProt Q9BZL6)", "T3 sequence (whole entry)": "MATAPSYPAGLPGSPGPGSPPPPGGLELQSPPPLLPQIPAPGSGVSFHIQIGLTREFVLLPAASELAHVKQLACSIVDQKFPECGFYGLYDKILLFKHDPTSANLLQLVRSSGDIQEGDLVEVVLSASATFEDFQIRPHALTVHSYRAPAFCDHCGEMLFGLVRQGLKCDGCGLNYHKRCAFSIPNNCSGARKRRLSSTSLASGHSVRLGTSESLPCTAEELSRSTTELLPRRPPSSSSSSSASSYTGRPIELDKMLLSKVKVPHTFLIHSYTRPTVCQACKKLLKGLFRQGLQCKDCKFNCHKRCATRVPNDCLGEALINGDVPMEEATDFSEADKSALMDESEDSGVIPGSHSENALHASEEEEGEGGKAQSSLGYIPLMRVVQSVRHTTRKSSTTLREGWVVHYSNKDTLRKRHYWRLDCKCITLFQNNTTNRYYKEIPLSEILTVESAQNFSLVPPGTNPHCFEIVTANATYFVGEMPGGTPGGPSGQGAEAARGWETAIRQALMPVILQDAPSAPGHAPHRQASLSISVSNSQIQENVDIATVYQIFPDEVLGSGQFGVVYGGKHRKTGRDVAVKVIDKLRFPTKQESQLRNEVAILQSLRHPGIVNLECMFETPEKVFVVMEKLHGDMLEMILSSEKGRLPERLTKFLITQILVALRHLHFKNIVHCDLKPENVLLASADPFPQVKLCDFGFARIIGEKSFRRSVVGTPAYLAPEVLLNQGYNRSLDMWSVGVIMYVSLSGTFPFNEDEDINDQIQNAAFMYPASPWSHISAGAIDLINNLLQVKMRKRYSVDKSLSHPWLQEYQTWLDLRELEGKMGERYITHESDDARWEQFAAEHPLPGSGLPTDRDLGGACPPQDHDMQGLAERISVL", "experiment": "Selectivity interaction (KinomeScan (DiscoverX)) EUB0001079a PRKD2", "details": "at 1 µM"}, "[5]": {"target": "MAP kinase-interacting serine/threonine-protein kinase 1 (Homo sapiens) (UniProt Q9BUB5)", "sequence (Q9BUB5 whole entry, looked up)": "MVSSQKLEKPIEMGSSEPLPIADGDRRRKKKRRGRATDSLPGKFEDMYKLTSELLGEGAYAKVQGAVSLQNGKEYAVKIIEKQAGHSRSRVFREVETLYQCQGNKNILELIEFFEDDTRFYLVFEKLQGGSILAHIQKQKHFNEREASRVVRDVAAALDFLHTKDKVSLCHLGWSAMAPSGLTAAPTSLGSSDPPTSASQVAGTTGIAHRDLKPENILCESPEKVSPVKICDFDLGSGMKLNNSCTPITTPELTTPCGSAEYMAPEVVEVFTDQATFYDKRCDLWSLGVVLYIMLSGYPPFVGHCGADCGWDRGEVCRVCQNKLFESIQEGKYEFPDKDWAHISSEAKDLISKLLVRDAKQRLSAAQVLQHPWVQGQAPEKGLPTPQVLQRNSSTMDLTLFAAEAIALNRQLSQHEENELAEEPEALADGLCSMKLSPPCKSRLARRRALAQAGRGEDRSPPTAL", "experiment": "Selectivity interaction (KinomeScan (DiscoverX)) EUB0000666a MKNK1", "details": "at 10 µM"}, "[6]": {"target": "T4, Uncharacterized serine/threonine-protein kinase SBK3 (Homo sapiens) (UniProt P0C264)", "T4 sequence (whole entry)": "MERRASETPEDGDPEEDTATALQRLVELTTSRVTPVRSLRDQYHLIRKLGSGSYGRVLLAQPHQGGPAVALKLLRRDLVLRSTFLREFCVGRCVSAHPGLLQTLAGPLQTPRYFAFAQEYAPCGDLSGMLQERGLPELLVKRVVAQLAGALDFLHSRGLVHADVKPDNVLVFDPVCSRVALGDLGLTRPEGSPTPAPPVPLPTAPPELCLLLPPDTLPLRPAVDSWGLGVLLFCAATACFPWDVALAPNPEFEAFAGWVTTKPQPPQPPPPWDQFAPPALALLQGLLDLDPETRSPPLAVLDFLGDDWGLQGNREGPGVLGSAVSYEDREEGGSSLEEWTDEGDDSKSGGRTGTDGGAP", "details": "at 10 µM"}, "[7]": {"system": "Leucine-rich repeat serine/threonine-protein kinase 2 (Homo sapiens), Q5S007 [G2019S]", "sequence (Q5S007 whole entry G2019S)": "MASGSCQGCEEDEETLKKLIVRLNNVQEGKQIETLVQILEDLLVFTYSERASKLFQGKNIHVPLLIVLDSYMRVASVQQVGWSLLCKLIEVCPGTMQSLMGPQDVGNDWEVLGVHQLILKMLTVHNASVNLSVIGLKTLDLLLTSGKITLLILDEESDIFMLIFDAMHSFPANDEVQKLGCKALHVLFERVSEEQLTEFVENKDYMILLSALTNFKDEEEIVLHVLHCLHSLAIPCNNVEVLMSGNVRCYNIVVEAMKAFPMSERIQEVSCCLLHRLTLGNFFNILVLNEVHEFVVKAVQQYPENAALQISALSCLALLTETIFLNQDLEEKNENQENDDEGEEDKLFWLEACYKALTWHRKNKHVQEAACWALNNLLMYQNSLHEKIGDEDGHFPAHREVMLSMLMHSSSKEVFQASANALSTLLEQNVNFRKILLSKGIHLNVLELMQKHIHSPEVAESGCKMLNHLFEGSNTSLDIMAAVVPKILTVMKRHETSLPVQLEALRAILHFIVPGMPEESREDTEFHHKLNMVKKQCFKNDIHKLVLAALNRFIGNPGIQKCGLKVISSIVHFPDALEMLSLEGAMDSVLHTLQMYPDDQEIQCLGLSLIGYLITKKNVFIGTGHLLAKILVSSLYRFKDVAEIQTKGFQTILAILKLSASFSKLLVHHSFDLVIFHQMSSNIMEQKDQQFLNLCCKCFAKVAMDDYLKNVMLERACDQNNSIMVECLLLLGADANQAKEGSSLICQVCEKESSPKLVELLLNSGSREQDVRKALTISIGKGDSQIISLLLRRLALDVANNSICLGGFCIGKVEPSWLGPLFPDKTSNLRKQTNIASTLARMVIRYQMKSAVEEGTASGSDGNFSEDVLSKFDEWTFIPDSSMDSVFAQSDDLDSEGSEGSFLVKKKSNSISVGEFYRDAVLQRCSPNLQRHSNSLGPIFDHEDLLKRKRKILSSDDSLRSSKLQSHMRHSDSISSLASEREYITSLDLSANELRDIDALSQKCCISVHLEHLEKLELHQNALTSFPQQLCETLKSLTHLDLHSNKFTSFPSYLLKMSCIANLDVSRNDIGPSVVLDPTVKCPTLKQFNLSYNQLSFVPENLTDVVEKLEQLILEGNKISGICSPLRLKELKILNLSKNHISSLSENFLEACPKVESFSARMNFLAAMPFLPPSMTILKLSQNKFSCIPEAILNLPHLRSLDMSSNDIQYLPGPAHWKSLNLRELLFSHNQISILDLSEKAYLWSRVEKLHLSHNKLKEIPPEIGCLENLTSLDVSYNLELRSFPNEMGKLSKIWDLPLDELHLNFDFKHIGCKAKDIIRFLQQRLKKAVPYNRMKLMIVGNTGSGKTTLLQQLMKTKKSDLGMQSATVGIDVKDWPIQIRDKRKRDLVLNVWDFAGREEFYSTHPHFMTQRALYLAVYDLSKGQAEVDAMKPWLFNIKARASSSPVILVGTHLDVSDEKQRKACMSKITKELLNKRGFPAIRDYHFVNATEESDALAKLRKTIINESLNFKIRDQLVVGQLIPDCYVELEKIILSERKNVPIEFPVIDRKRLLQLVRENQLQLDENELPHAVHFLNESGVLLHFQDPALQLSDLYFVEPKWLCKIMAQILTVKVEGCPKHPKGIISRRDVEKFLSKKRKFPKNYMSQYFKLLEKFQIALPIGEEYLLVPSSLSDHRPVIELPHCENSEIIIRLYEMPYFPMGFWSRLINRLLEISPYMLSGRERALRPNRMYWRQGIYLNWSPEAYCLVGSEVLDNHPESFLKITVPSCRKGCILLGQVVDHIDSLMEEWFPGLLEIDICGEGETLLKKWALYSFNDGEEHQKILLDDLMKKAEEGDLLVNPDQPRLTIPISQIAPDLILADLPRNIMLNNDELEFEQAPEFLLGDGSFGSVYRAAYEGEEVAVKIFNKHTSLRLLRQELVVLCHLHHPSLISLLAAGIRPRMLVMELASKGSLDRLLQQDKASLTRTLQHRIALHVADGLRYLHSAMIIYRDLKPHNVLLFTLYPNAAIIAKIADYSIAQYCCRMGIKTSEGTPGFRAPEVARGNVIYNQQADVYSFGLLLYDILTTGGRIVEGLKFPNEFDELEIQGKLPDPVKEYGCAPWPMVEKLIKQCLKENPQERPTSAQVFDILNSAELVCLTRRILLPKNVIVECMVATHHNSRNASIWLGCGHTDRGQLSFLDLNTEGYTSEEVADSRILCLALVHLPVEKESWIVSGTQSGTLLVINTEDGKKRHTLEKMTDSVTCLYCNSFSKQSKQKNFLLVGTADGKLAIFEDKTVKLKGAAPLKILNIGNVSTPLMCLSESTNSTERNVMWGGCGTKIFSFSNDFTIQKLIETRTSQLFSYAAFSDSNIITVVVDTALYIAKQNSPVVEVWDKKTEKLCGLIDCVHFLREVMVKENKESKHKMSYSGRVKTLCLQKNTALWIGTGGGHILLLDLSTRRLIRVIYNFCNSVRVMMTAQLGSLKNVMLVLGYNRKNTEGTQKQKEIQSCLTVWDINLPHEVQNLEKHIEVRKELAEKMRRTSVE", "experiment": "Selectivity interaction (Adapta Assay) EUB0001632a LRRK2", "details": "at 10 µM"}, "[8]": {"target": "Protein kinase C delta type (Homo sapiens) (UniProt Q05655)", "experiment": "Selectivity interaction (Kinase panel (Invitrogen)) EUB0000639a PRKCD", "details": "at 200 nM"}, "[9]": {"target": "Mitogen-activated protein kinase kinase kinase kinase 1 (Homo sapiens) (UniProt Q92918)", "sequence (Q92918 whole entry, looked up)": "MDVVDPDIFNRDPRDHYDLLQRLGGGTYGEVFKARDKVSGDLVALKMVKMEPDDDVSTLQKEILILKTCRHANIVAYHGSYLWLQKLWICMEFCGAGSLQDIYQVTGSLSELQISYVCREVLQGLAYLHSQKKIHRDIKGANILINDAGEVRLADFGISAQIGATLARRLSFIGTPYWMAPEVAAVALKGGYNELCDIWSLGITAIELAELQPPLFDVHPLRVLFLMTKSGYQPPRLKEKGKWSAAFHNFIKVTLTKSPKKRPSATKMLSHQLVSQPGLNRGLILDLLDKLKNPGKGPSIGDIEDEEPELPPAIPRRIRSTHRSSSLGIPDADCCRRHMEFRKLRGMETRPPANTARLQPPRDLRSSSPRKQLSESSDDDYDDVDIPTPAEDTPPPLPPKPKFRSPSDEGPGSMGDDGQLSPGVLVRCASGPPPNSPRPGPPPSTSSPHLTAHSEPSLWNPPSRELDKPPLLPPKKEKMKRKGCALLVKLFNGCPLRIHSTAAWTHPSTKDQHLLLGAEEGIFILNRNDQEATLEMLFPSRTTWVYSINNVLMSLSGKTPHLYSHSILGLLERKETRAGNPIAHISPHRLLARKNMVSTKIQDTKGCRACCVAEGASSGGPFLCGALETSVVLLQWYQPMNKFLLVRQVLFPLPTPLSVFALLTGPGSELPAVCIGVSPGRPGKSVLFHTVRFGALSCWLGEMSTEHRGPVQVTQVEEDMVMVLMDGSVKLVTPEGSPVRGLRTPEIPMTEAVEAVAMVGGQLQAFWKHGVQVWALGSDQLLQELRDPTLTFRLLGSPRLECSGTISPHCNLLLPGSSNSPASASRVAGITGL", "experiment": "Selectivity interaction (ActivX KiNativ screen (kinase selectivity in THP-1 cell lysates)) EUB0000639a MAP4K1", "type": "subcellular", "details": "lysate"}, "[10]": {"target": "Mitogen-activated protein kinase kinase kinase 10 (Homo sapiens) (UniProt Q02779)", "sequence (Q02779 whole entry, looked up)": "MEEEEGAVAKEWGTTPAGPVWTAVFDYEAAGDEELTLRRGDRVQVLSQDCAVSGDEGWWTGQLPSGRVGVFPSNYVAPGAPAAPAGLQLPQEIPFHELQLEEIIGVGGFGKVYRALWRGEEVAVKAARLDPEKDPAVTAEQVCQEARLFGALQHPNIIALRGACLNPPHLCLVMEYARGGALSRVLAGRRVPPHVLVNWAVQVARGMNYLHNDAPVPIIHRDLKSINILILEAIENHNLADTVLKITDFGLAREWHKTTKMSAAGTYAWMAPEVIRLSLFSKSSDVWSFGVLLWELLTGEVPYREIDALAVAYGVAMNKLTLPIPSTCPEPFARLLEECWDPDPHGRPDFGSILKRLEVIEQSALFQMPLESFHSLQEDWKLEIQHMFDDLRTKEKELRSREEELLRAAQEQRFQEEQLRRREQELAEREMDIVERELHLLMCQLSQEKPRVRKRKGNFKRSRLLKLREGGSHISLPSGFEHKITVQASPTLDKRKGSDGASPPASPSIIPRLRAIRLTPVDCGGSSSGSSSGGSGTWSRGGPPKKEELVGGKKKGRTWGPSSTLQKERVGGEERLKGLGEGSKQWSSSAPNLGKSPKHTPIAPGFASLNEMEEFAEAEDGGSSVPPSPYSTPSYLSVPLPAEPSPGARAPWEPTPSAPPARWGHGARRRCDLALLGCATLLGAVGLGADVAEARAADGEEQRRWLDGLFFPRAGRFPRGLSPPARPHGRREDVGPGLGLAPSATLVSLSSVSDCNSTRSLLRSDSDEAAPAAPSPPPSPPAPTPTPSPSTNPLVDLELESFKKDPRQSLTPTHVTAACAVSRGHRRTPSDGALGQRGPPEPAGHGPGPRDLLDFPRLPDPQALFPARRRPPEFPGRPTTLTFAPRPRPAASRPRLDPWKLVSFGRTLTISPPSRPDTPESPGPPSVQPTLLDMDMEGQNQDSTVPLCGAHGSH", "experiment": "Selectivity interaction (KinomeScan (DiscoverX)) EUB0000607a MAP3K10", "details": "at 10 µM"}, "[11]": {"target": "Nociceptin receptor (Homo sapiens) (UniProt P41146)", "experiment": "Selectivity interaction (Eurofins CEREP Diversity Profile (receptors and ion channels)) EUB0000279b OPRL1", "details": "at 10 µM"}, "[12]": {"target": "Mitogen-activated protein kinase kinase kinase kinase 4 (Homo sapiens, UniProt O95819)", "experiment": "Selectivity interaction (Ambit KINOMEscan and KiNATiv profiling in Jurkat cells) EUB0000090b MAP4K4", "type": "cell-based", "details": "at 1 µM"}, "[13]": {"target": "Macrophage colony-stimulating factor 1 receptor (Homo sapiens) (UniProt P07333)", "experiment": "Selectivity interaction (KinomeScan (DiscoverX)) EUB0001619a CSF1R", "details": "at 1 µM"}},
  "data": [
    {"smiles": "COc1cc(N(C)c2ccnc3ccc(C(F)(F)F)cc23)cc(OC)c1OC", "values": [
      {"measurement": "% binding", "setting": "[1]", "result": 100, "unit": "%"}
    ]},
    {"smiles": "Cc1ccc(-c2ccc3c(ccc4sc5c(c43)NC[C@@H](C)NC5=O)n2)cn1", "values": [
      {"measurement": "% of inhibition", "setting": "[2]", "result": 8, "unit": "%"}
    ]},
    {"smiles": "CN(C)CCOc1ccc(-c2nc(-c3ccncc3)c(-c3ccc4c(c3)CC/C4=N\\O)[nH]2)cc1", "values": [
      {"measurement": "% of control", "setting": "[3]", "result": 100, "unit": "%"}
    ]},
    {"smiles": "Nc1cnc(N2CCc3cc(S(=O)(=O)Nc4c(F)cc(Cl)cc4F)cc(N4CCCC4=O)c32)nc1", "note": "[TP-020n]", "values": [
      {"measurement": "% of control", "setting": "[4]", "result": 100, "unit": "%"}
    ]},
    {"smiles": "O=C(NOC[C@H](O)CO)c1ccc(F)c(F)c1Nc1ccc(I)cc1F", "values": [
      {"measurement": "% of control", "setting": "[5]", "result": 100, "unit": "%"}
    ]},
    {"smiles": "Cc1cc([C@@H](C)Nc2ccccc2C(=O)O)c2nc(N3CCOCC3)cc(=O)n2c1", "note": "[AZD-6482]", "values": [
      {"measurement": "% of control", "setting": "[6]", "result": 100, "unit": "%"}
    ]},
    {"smiles": "Cn1cc(-n2cnc3c(NCc4nc5cc(Cl)c(Cl)cc5[nH]4)nc(N4CCOCC4)nc32)cn1", "values": [
      {"measurement": "% of inhibition", "setting": "[7]", "result": 95, "unit": "%"}
    ]},
    {"smiles": "CC[C@@H]1[C@H](F)C(=O)N[C@@H]1COc1nccc2cc(C(N)=O)c(OC)cc12", "note": "[ZIMLOVISERTIB]", "values": [
      {"measurement": "% of inhibition", "setting": "[8]", "result": -5.07, "unit": "%"},
      {"measurement": "% of inhibition", "setting": "[9]; at 0.01 µM", "result": 9.7, "unit": "%"},
      {"measurement": "% of inhibition", "setting": "[9]; at 0.04 µM", "result": -10.3, "unit": "%"},
      {"measurement": "% of inhibition", "setting": "[9]; at 0.2 µM", "result": -26.5, "unit": "%"},
      {"measurement": "% of inhibition", "setting": "[9]; at 1 µM", "result": -6.5, "unit": "%"},
      {"measurement": "% of inhibition", "setting": "[9]; at 5 µM", "result": -18.1, "unit": "%"}
    ]},
    {"smiles": "CNC(=O)Nc1ccc(-c2nc(N3CC4CCC(C3)O4)c3cnn(C4CCC5(CC4)OCCO5)c3n2)cc1", "values": [
      {"measurement": "% of control", "setting": "[10]", "result": 100, "unit": "%"}
    ]},
    {"smiles": "CC(=O)c1cc(-c2ccccc2OCC2CC2)c2ncccn12", "values": [
      {"measurement": "% of control", "setting": "[11]", "result": 88, "unit": "%"}
    ]},
    {"smiles": "CN(C)C/C=C/C(=O)Nc1ccc(C(=O)N2CCCC(Nc3ncc(Cl)c(-c4c[nH]c5ccccc45)n3)C2)cc1", "note": "(configuration not stated)", "values": [
      {"measurement": "% of control", "setting": "[12]", "result": 78, "unit": "%"}
    ]},
    {"smiles": "N#Cc1cccc(-c2c[nH]c3ncnc(N4CCOCC4)c23)c1", "values": [
      {"measurement": "% of control", "setting": "[13]", "result": 100, "unit": "%"}
    ]}
  ]
}
